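Values below derive from 48-hour exposures of cells grown in 96-well plates, with endpoints linearly interpolated between the two concentrations bracketing the appropriate inhibition level. TGI is the concentration that stops growth completely.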
How the values were obtained:
Experiment in all cases: NCI tumour cell line growth inhibition, 48 h
[1] = system: A498 renal
[2] = system: A549 NSCLC
[3] = system: CAKI-1 renal
[4] = system: CCRF-CEM leukemia
[5] = system: COLO 205 colon
[6] = system: DLD-1 colon
[7] = system: DMS 114 small cell lung
[8] = system: DMS 273 small cell lung
[9] = system: EKVX NSCLC
[10] = system: HCC-2998 colon
[11] = system: HCT-116 colon
[12] = system: HCT-15 colon
[13] = system: HL-60(TB) leukemia
[14] = system: HOP-18 NSCLC
[15] = system: HOP-62 NSCLC
[16] = system: HOP-92 NSCLC
[17] = system: HT29 colon
[18] = system: IGROV1 ovarian
[19] = system: K-562 leukemia
[20] = system: KM12 colon
[21] = system: KM20L2 colon
[22] = system: LOX IMVI melanoma
[23] = system: M19-MEL melanoma
[24] = system: MALME-3M melanoma
[25] = system: MCF7 breast
[26] = system: MOLT-4 leukemia
[27] = system: NCI-H226 lung
[28] = system: NCI-H23 lung
[29] = system: NCI-H460 lung
[30] = system: NCI-H522 lung
[31] = system: NCI/ADR-RES ovarian
[32] = system: OVCAR-3 ovarian
[33] = system: OVCAR-4 ovarian
[34] = system: OVCAR-5 ovarian
[35] = system: OVCAR-8 ovarian
[36] = system: P388 leukemia
[37] = system: P388/ADR leukemia
[38] = system: RPMI-8226 leukemia
[39] = system: RXF 393 renal
[40] = system: SF-268 CNS
[41] = system: SF-295 CNS
[42] = system: SF-539 CNS
[43] = system: SK-MEL-2 melanoma
[44] = system: SK-MEL-28 melanoma
[45] = system: SK-MEL-5 melanoma
[46] = system: SK-OV-3 ovarian
[47] = system: SN12C renal
[48] = system: SN12K1 renal
[49] = system: SNB-19 CNS
[50] = system: SNB-75 CNS
[51] = system: SNB-78 CNS
[52] = system: SW-620 colon
[53] = system: U251 CNS
[54] = system: UACC-257 melanoma
[55] = system: UACC-62 melanoma
[56] = system: UO-31 renal
[57] = system: XF 498 CNS
[58] = system: 786-0 renal
[59] = system: ACHN renal
[60] = system: LXFL 529 NSCLC
[61] = system: M14 melanoma
[62] = system: RXF-631 renal
[63] = system: SR leukemia
[64] = system: TK-10 renal

`CC1=C(O)C(=O)[C@@H]2O[C@@H]2C1=O` gave a TGI [1] of 17.1 µM, a TGI [2] of 99 µM and a TGI [3] of 16.7 µM. It also gave a TGI [4] of 8.09 µM, a TGI [5] of 16 µM and a TGI [6] of 21.7 µM. The TGI [7] was 28.4 µM, the TGI [8] was 62.3 µM and the TGI [9] was 33.9 µM. For the same compound, the TGI [10] was 35.6 µM, the TGI [11] was 27.8 µM and the TGI [12] was 22 µM. The TGI [13] was 8.59 µM, the TGI [14] was 30.6 µM and the TGI [15] was 100 µM. The TGI [16] was 17.1 µM, the TGI [17] was 36.6 µM and the TGI [18] was 48.4 µM. It also gave a TGI [19] of 42.7 µM, a TGI [20] of 27.3 µM and a TGI [21] of 49.4 µM. It also gave a TGI [22] of 26.8 µM, a TGI [23] of 28.9 µM and a TGI [24] of 17.2 µM. For the same compound, the TGI [25] was 31.7 µM, the TGI [26] was 10.9 µM and the TGI [27] was 37 µM. The TGI [28] was 35.8 µM, the TGI [29] was 47.4 µM and the TGI [30] was 4.56 µM. The TGI [31] was 44.9 µM, the TGI [32] was 17.4 µM and the TGI [33] was 28.5 µM. The TGI [34] was 33.9 µM, the TGI [35] was 24.7 µM and the TGI [36] was 4.99 µM. It also gave a TGI [37] of 32.9 µM, a TGI [38] of 16.5 µM and a TGI [39] of 7.88 µM. It also gave a TGI [40] of 30.5 µM, a TGI [41] of 72.1 µM and a TGI [42] of 41.9 µM. For the same compound, the TGI [43] was 38.1 µM, the TGI [44] was 16.7 µM and the TGI [45] was 30.1 µM. The TGI [46] was 107 µM, the TGI [47] was 52.4 µM and the TGI [48] was 32.3 µM. The TGI [49] was 115 µM, the TGI [50] was 31.9 µM and the TGI [51] was 40.9 µM. For the same compound, the TGI [52] was 13.4 µM, the TGI [53] was 46.3 µM and the TGI [54] was 23.9 µM. It also gave a TGI [55] of 21.7 µM, a TGI [56] of 54.1 µM and a TGI [57] of 23.3 µM.

For `COCCOCOc1ccc(OCc2ccccc2)cc1`, the TGI [1] was 99.5 µM, the TGI [2] was > 100 µM and the TGI [3] was > 100 µM. The TGI [4] was > 100 µM, the TGI [5] was > 100 µM and the TGI [6] was > 100 µM. For the same compound, the TGI [7] was > 100 µM, the TGI [8] was > 100 µM and the TGI [9] was 97.3 µM. For the same compound, the TGI [10] was > 100 µM, the TGI [11] was > 100 µM and the TGI [12] was > 100 µM. For the same compound, the TGI [13] was > 100 µM, the TGI [14] was > 100 µM and the TGI [15] was > 100 µM. The TGI [16] was > 100 µM, the TGI [17] was > 100 µM and the TGI [18] was > 100 µM. The TGI [19] was > 100 µM, the TGI [20] was > 100 µM and the TGI [21] was > 100 µM. The TGI [22] was > 100 µM, the TGI [23] was > 100 µM and the TGI [24] was > 100 µM. The TGI [25] was > 51.4 µM, the TGI [26] was > 100 µM and the TGI [27] was > 100 µM. The TGI [28] was > 100 µM, the TGI [29] was > 100 µM and the TGI [31] was > 100 µM. For the same compound, the TGI [32] was > 100 µM, the TGI [33] was > 51 µM and the TGI [34] was > 100 µM. For the same compound, the TGI [35] was > 100 µM, the TGI [36] was 60.7 µM and the TGI [37] was 89.1 µM. For the same compound, the TGI [38] was > 100 µM, the TGI [39] was > 100 µM and the TGI [40] was > 100 µM. For the same compound, the TGI [41] was > 100 µM, the TGI [42] was > 100 µM and the TGI [43] was > 100 µM. For the same compound, the TGI [44] was > 100 µM, the TGI [45] was > 100 µM and the TGI [46] was > 100 µM. For the same compound, the TGI [47] was > 100 µM, the TGI [48] was > 100 µM and the TGI [49] was > 100 µM. For the same compound, the TGI [50] was > 41.1 µM, the TGI [51] was > 100 µM and the TGI [52] was > 100 µM. The TGI [53] was > 100 µM, the TGI [54] was > 100 µM and the TGI [55] was > 100 µM. The TGI [56] was > 100 µM and the TGI [57] was > 100 µM.

In the case of `CCOC(=O)NC(=O)c1cn(C2OC(COC(=O)CCCCCCCCC(=O)OCC3OC(n4cc(C(=O)NC(=O)OCC)c(=O)[nH]c4=O)C(O)C3O)C(O)C2O)c(=O)[nH]c1=O` (configuration not stated), the TGI [58] was > 100 µM, the TGI [1] was > 100 µM and the TGI [2] was > 100 µM. The TGI [59] was > 100 µM, the TGI [3] was > 100 µM and the TGI [4] was > 100 µM. The TGI [6] was > 100 µM, the TGI [7] was > 100 µM and the TGI [8] was > 100 µM. For the same compound, the TGI [9] was > 100 µM, the TGI [10] was > 100 µM and the TGI [11] was > 100 µM. For the same compound, the TGI [12] was > 100 µM, the TGI [13] was > 100 µM and the TGI [14] was > 100 µM. For the same compound, the TGI [15] was > 100 µM, the TGI [17] was > 100 µM and the TGI [18] was > 100 µM. For the same compound, the TGI [19] was > 100 µM, the TGI [20] was > 100 µM and the TGI [21] was > 100 µM. The TGI [22] was > 100 µM, the TGI [60] was > 100 µM and the TGI [61] was > 100 µM. The TGI [23] was > 100 µM, the TGI [24] was > 100 µM and the TGI [26] was > 100 µM. The TGI [27] was > 100 µM, the TGI [28] was > 100 µM and the TGI [29] was > 100 µM. The TGI [32] was > 100 µM, the TGI [33] was > 100 µM and the TGI [34] was > 100 µM. The TGI [35] was > 100 µM, the TGI [38] was > 100 µM and the TGI [39] was > 100 µM. For the same compound, the TGI [62] was > 100 µM, the TGI [40] was > 100 µM and the TGI [41] was > 100 µM. For the same compound, the TGI [42] was > 100 µM, the TGI [43] was > 100 µM and the TGI [44] was > 100 µM. The TGI [45] was > 100 µM, the TGI [47] was > 100 µM and the TGI [49] was > 100 µM. The TGI [50] was > 100 µM, the TGI [51] was > 100 µM and the TGI [63] was > 100 µM. The TGI [52] was > 100 µM, the TGI [64] was > 100 µM and the TGI [54] was > 100 µM. The TGI [55] was > 100 µM, the TGI [56] was > 100 µM and the TGI [57] was > 100 µM.

Reference: PubChem BioAssay (NCI)
